Data set [1] concerns the target T1, Autotaxin (Homo sapiens, UniProt Q13822). In words: Inhibition of human recombinant ATX lysophospholipase activity expressed in insect sf9 cells using FS-3 fluorogenic substrate preincubated for 10 mins measured after 5 and 25 mins by fluorometric analysis.
Data set [2] deals with T1, Autotaxin. Nature of the data set: Inhibition of human recombinant ATX lysophospholipase activity expressed in insect sf9 cells using FS-3 fluorogenic substrate at 10 uM preincubated for 10 mins measured after 5 and 25 mins by fluorometric analysis.
Data set [3] is described as follows: Aqueous solubility of the compound. Type of data set: physicochemical. As to conditions: buffer.

The structures appear in SMILES notation. The source made the active and inactive calls. The rule behind the calls is not given here.

The Ki is a measure of affinity in units of concentration, obtained from inhibition or displacement. As a reminder, the solubility is the dissolved amount per volume that the medium holds.

With `CCCCCCCCCCCCCC(=O)Nc1ccc(C(O)P(=O)(O)O)cc1.NC1CCCCC1` (stereo not given), on Autotaxin [1], the inhibitory constant (Ki) was found to be 24 nM.
Regarding `CCCCCCCCCC(=O)Nc1ccc(C(F)P(=O)(O)O)cc1.NC1CCCCC1` (stereo not given), at Autotaxin [1], the Ki came to 72 nM.
On the same count and under the same terms, in the case of `CCCCCCCCCC(=O)Nc1ccc(CP(=O)(O)O)cc1.NC1CCCCC1` it was 18 nM.
Still for that read-out and setting: with `CCCCCCC(=O)Nc1ccc(C(O)P(=O)(O)O)cc1.NC1CCCCC1` (stereo not given) the figure was 1010 nM.
Consider `CCOP(=O)(Cc1ccc(N)cc1)OCC`, for which, on Autotaxin [2], the inhibition result is “inactive”. The solubility result in data set [3] is recorded as “soluble”.
With `CCCCCCCCCCCCCC(=O)Nc1ccc(C(F)P(=O)(O)O)cc1.NC1CCCCC1` (stereo not given), the Ki on Autotaxin [1] was 6.1 nM.
For the molecule `CCCCCCCCCCCCCC(=O)Nc1ccc(CP(=O)(O)O)cc1.NC1CCCCC1`, the Ki at Autotaxin [1] worked out at 9 nM. Further, in data set [3] (read-out: solubility), the solubility was found to be 1000 µg/mL.
As for `CCCCCCC(=O)Nc1ccc(CP(=O)(O)O)cc1.NC1CCCCC1`, the Ki on Autotaxin [1] stood at 512 nM.
As for `CCCCCCCCCC(=O)Nc1ccc(C(O)P(=O)(O)O)cc1.NC1CCCCC1` (stereo not given), on Autotaxin [1], the Ki is 24.2 nM. For the same molecule, the solubility in data set [3] (read-out: solubility) is 4000 µg/mL.
As for `CCCCCCCCCCCCCC(=O)Nc1ccc(C(Br)P(=O)(O)O)cc1.NC1CCCCC1` (stereo not given), the Ki on Autotaxin [1] came out at 8.1 nM.
`COCCOCCOCCC(=O)Nc1ccc(CP(=O)(O)O)cc1.NC1CCCCC1`: the inhibition entry at Autotaxin [2] is “inactive”.
Take `CCCCCCC(=O)Nc1ccc(C(F)P(=O)(O)O)cc1.NC1CCCCC1` (stereo not given): on Autotaxin [1], the Ki was 834 nM.
